From a melting point compilation (Tetko et al.; mined from patent text by program, amines drawn as free bases though some values may be those of a salt)

| SMILES | melting point |
| --- | --- |
| CC(C)(C)OC(=O)NC(C(=O)OCC(=O)c1ccccc1)c1ccc(OCC(=O)c2ccccc2)cc1 (centres undefined) | 125 to 126 °C |
| O=C(Nc1ccc(-n2nc(C(F)(F)F)cc2OC(F)F)cc1)c1cccc(F)c1F | 154 to 155 °C |
| Cn1c(C=O)cc2ccccc21 | 83 °C |
| Nc1sc2c(c1C(=O)c1ccc3ccccc3c1)CCN(Cc1ccccc1F)C2 | 183 to 185 °C |
| COC(=O)C(C)OC(=O)Cc1cc(Oc2ccc(C(F)(F)F)cc2Cl)ccc1[N+](=O)[O-] (centres undefined) | 72.1 to 72.9 °C |
| C=CCNc1nc(N)nc(-c2ccccc2)c1-c1ccc(=O)n(C(C)C)n1 | 192 °C |
| O=C(CCC1CCN(C(=O)OCc2ccc([N+](=O)[O-])cc2)CC1)c1ccc2c(c1)CN1C(=O)c3ccccc3C1CC2 (centres undefined) | 179 to 181 °C |
| O=C1O[C@@H](Cn2ccnn2)CN1c1ccc(-c2ccc(C3=NOC(CS(=O)(=O)CCO)C3)nc2)c(F)c1 (some centres undefined) | 210 °C |
| COc1cccc([C@H]2O[C@H](CC(=O)Nc3cc(C(=O)O)ccc3F)C(=O)N(CC(C)(C)COC(C)=O)c3ccc(Cl)cc32)c1OC | 146 to 149 °C |
| N#CCc1ccc(C(=O)c2ccc(Cl)cc2)n1Cc1ccccc1 | 104 to 106 °C |
| CCCCc1oc2ccccc2c1C(=O)NCc1ccc(-c2ccc(OCC(=O)O)c(Br)c2)cc1 | 175 to 190 °C |
| CNCC1Cc2cc(OC)cc(-c3ccccc3F)c2O1 (centres undefined) | 110 to 112 °C |
| CC(=O)Nc1cc(C(=O)OC2OC(COC(=O)c3ccccc3)C(OC3OC4COC(c5ccncc5)OC4C(O)C3O)C(O)C2O)ccc1Cl (centres undefined) | 260 to 262 °C |
| CCCCn1c(=O)c2c(NC)n[nH]c2n(Cc2ccccc2[N+](=O)[O-])c1=O | > 300 °C |
| CCCCCCCCCCCCSCCOc1ccc(CCC(=O)O)cc1 | 68 to 69 °C |
| COC(=O)CCC(=O)c1ccccc1NC(=O)CCl | 102 °C |
| COC(=O)c1ccc(C(F)(F)F)nc1S(=O)(=O)NC(C)(C)C | 76 to 83 °C |
| COCC(=O)Nc1nc(N)nc(NC2CC2)n1 | 152 to 157 °C |
| CCc1nc(-c2ccc(F)cc2)c(-c2ccc(S(C)(=O)=O)cc2)s1 | 156 to 157 °C |
| O=C(CN1CCCCC1)Nc1ccc2c(c1)C(=O)c1cc(NC(=O)CN3CCCCC3)ccc1C2=O | 243 °C |
| Fc1ccc(F)c(-n2nnc3cccnc32)c1 | 140 °C |
| COc1c(OC)c(OC(C)=O)c2cc(Cl)ccc2c1O | 106 to 107 °C |
| CSc1ccc(C2=C(Br)CCC2)cc1 | 52 to 54 °C |
| CCOc1cccc(F)c1C1OC(=O)NC1=O (centres undefined) | 127 to 128 °C |
| CCOC(=O)C1NC(C(=O)O)c2[nH]c3cccc(OCc4cccc(Cl)c4)c3c2C1COC (centres undefined) | 178 to 179 °C |

| SMILES | melting point |
| --- | --- |
| CC(c1oc2ccccc2c(=O)c1-c1cccc(F)c1)n1nc(-c2cccc3[nH]ncc23)c2c(N)ncnc21 (centres undefined) | 231 to 233 °C |
| S=C1CN=C(c2ccccc2Cl)c2ccccc2N1 | 228 to 229 °C |
| CC(C)(C)OC(=O)NO[C@H]1CC=C[C@H]1NC(=O)OCC(Cl)(Cl)Cl | 83 to 84 °C |
| O=C(O)c1cc(-c2ccc(C(F)(F)F)cc2)cnc1O | 305 to 315 °C |
| CCOC(CCn1c(-c2ccc(F)cc2)c(-c2ccccc2)c(C(=O)Nc2ccccc2)c1C(C)C)OCC | 125 to 128 °C |
| COc1cccc(OC)c1CNC(=O)c1ccc2cnccc2n1 | 169 to 171 °C |
| CN1CCN(c2cccc(C(=O)N3CC=C(c4ccccc4F)CC3)n2)CC1 | 177 °C |
| CC(C)Oc1ccc(-n2c(-c3ccc(C(=O)O)cc3)c(C(=O)O)c3cc(Oc4ccc(Cl)cc4)ccc32)cc1 | 217 to 222 °C |
| COc1ccc2cc([C@H](C)C(=O)OCCCN3C(=O)OC[C@H]3C(C)(C)S)ccc2c1 | 118 °C |
| CCn1ncc(N=O)c1N | 135 to 136 °C |
| CN(C)N(CCC(N)=O)C(N)=O | 173 to 174 °C |
| CC(C)c1cccc(C(C)C)c1NC(=O)NC(Cc1ccccc1)c1ccccc1 (centres undefined) | 219 to 221 °C |
| Cc1n[nH]c(=O)n1-c1ccc(OCC(F)(F)C(F)F)cc1 | 206 to 207 °C |
| O=C(O)c1ccc2c(c1)Nc1ccccc1S2 | > 235 °C |
| COc1ccc(-c2nnn(-c3ccc(Cl)cc3Cl)c2N)cc1 | 149 to 151 °C |
| COc1ccc(CC2(C)CN(C(c3ccccc3)c3ccccc3)CCN2C(C)=O)cc1OC (centres undefined) | 116 °C |
| COC(=O)C1=C(C)NC2=C(C(=O)CN(Cc3ccccc3)C2)C1c1ccccc1C (centres undefined) | 201 to 204 °C |
| O=C1NC(=O)C2CCCC12 (centres undefined) | 89 °C |
| CCCc1nc2c(N)nc3ccccc3c2n1CC(C)(C)CC(C)=NOC | 196 to 198 °C |
| CC12CCC3C(CC(O)C4CC(=O)CCC43C)C1CCC2O (centres undefined) | 195 to 205 °C |
| COc1cc2nc(-c3ccc(Cl)cc3)nc(Cl)c2cc1OC | 204 to 206 °C |
| CC(C)c1cccc(C(C)C)c1NC(=O)CN1CCN(CCSc2nc3ccccc3o2)CC1 | 161 to 163 °C |
| CC1(C)SC(CCCc2ccc(C(=O)O)cc2)N(CCC2(O)CCCCC2)C1=O (centres undefined) | 132 to 137 °C |
| CN(C)C(=S)Oc1ccc(C(=O)c2ccccc2C#N)cc1 | 138 °C |
| O=C(C=Cc1ccccc1)Oc1ccccc1 | 114 to 116 °C |

| SMILES | melting point |
| --- | --- |
| N#CCc1c[nH]c2ccc(N)cc12 | 125 to 130 °C |
| COC(=O)c1ccc(-c2nc(-c3cc(C)oc3C)cs2)cc1 | 103 to 105 °C |
| CCOC(=O)c1c(N2CCN(C(=O)c3cccs3)CC2)c2cccnc2n(Cc2ccc(OC(C)=O)cc2)c1=O | 123 °C |
| COC(=O)NCc1cc(C(C)=NOCc2cccc(C)n2)ccc1C | 72 to 75 °C |
| Nc1ncc(Cc2ccc3c(c2)CCCN3)c(N)n1 | 284 to 287 °C |
| CCNC(=NS(=O)(=O)c1cccc(C#N)c1)N1CC(CC)C=N1 (centres undefined) | 164 to 168 °C |
| O=C(C(=O)c1ccc(C(F)(F)F)cc1)c1ccncc1 | 70 to 72 °C |
| Cc1nn(-c2ccccn2)c2ncc(C(=O)NC3CCCCC3)c(O)c12 | > 300 °C |
| Cc1cccc(Cc2c[nH]cn2)c1 | 127 to 130 °C |
| CC(=O)C(=Cc1ccc(S(C)(=O)=O)cc1)C(C)=O | 139 to 140 °C |
| COc1ccc(C(=O)c2cc(F)cc(F)c2)cc1 | 90 °C |
| CC(=O)Oc1ccc(C(C[N+](=O)[O-])SC(=S)N(C)C)cc1 (centres undefined) | 116 to 118 °C |
| CCC(NC(=NC#N)Nc1ccc(N)nc1)c1ccccc1 (centres undefined) | 178 °C |
| CS(=O)(=O)Nc1ccc(/C=C\COCCCCCCNCC(O)c2ccc(O)c(CO)c2)cc1 (centres undefined) | 113 to 116 °C |
| COC(=O)c1cccc(NC(N)=NC#N)c1 | 203 to 204 °C |
| O=C(CNc1cccc(F)c1)Nc1c(Cl)ccc2nc(N3CC[C@@H](O)C3)ccc12 | 218 to 220 °C |
| CCO[C@@H]1C[C@@H]2CN(C(=O)[C@@H](NC(=O)[C@H](C)NC)C3CCC(F)(F)CC3)[C@H](C(=O)N[C@@H]3CCOc4ccccc43)CN2C1 | 179 °C |
| CCS(=O)(=O)Nc1cc(Cc2c[nH]cn2)ccc1F | 122 to 123 °C |
| CN(C)C(=O)Sc1ccccc1C(=O)c1cccc(C#N)c1 | 86 °C |
| COc1ccc(C(=O)NCCCCCCCNC(=O)c2ccc(OC)c(Cl)c2)cc1Cl | 132 to 133 °C |
| c1csc(-c2nc3cc(COc4ccc(CCCCn5ccnc5)cc4)ccc3o2)c1 | 130 to 131 °C |
| O=C1C[C@@H]2O[C@@H](CS(=O)(=O)c3ccccc3)CN12 (racemic) | 144 to 146 °C |
| COc1ccc(-c2csc(Nc3cc4ccccc4cn3)n2)cc1OC | 200 to 203 °C |
| Cc1cccc(C)c1N1C(=S)N(C)C(O)C1O (centres undefined) | 140 to 143 °C |
| CC1(C)CCC(C)(C)c2cc(CC#Cc3ccc(C(=O)O)cc3)ccc21 | 167 to 168 °C |

| SMILES | melting point |
| --- | --- |
| C(#Cc1ccsc1)c1cccnc1 | 62 °C |
| CCCOc1ccc(S(=O)(=O)N2CCN(CC)CC2)cc1-c1nc2cc3ncn(Cc4ccc(F)cc4)c3cc2c(=O)[nH]1 | 155 to 158 °C |
| CC1Cc2cc3c(cc2C(C=Cc2ccc(F)cc2)=NN1)OCO3 (centres undefined) | 170 to 174 °C |
| CC(=O)c1ccc(Nc2ccccc2C(C)=C(Cl)Cl)cc1 | 81 to 82 °C |
| COc1ccc(C2=NN(CCCCBr)C(=O)[C@H]3CC=CC[C@@H]23)cc1Cl (relative stereo) | 109 to 111 °C |
| C=CC(c1ccccc1)c1c(C)c(NC=O)c(C)c(C)c1O (centres undefined) | 144 to 145 °C |
| CCNC1CCN(c2c(F)cc3c(=O)c(C(=O)O)cn(C4CC4)c3c2F)C1 (centres undefined) | 236 to 238 °C |
| CCOC(=O)c1cc2sc(N=CN(C)C)c(C#N)c2s1 | 168 °C |
| O=C(c1ccccc1)c1ccc(N2CCCCC2)c([N+](=O)[O-])c1 | 77 °C |
| O=C1C(c2nc3c(cc2O)OCO3)c2ccccc2N1Cc1ccc(C(F)(F)F)o1 (centres undefined) | 161 to 163 °C |
| CC(=O)NCc1ccc(C(C)(C)C(=O)O)cc1 | 166 to 169 °C |
| COCCCOc1cc(C[C@@H](C(=O)O)C(C)C)ccc1OC | 43.5 to 44 °C |
| CC(C)c1noc(C2CCN(c3ccc4oc(-c5ccc(S(C)(=O)=O)cc5F)nc4c3)CC2)n1 | 206 to 209 °C |
| COC(=O)[C@H]1[C@H](C(=O)OC)C1(Br)C=O (some centres undefined) | 52 °C |
| CCCC1=C(C(=O)OCC)C(c2ccccc2Cl)c2cn(C(=O)OC)nc2N1 (centres undefined) | 141 to 143 °C |
| OC(c1ccc(Cl)cc1)c1cccc(Br)c1 (centres undefined) | 67 to 68 °C |
| O=c1c(-c2ccccc2)c(CNc2ncnc3[nH]cnc23)oc2ccccc12 | 155 to 158 °C |
| CC1SC(c2cccnc2)NC1=O (centres undefined) | 110 °C |
| N#Cc1cnn(-c2c(Cl)cc(Cl)cc2Cl)c1Cl | 78 to 79 °C |
| O=CNCc1ccc2[nH]cc(CCCN3C(=O)c4ccccc4C3=O)c2c1 | 150 to 152 °C |
| CCCCOc1ccc(CC(=O)N[C@@H](C(=O)OCc2ccccc2)[C@@H](C)O)cc1 | 80 to 83 °C |
| Nc1ccccc1CNC(=O)C1Cc2ccccc2N1S(=O)(=O)c1ccc(-c2ccc(F)cc2Cl)cc1 (centres undefined) | 85 to 90 °C |
| Cc1ccc([N+](=O)[O-])cc1-c1cn(C)cc(-c2ccccc2)c1=O | 185 to 187 °C |
| CN1C(=O)CC[C@]2(C)c3ccc(CC(=O)Nc4ccccc4)cc3CC[C@@H]12 | 192 to 195 °C |
